Bridge positions count the residues as written; N and C are the ends. Square brackets hold non-standard residues; d marks the D form. Peptide text beside a SMILES is read from it. Hyp = O=C(O)[C@@H]1C[C@@H](O)CN1
Biological target: N-type or omega HVA neuronal calcium channels; calcium currents in N1E-115 neuroblastoma cells (Mus musculus, UniProt O55017)
Format: cell-based

Sequence of N-type or omega HVA neuronal calcium channels; calcium currents in N1E-115 neuroblastoma cells (O55017 whole entry): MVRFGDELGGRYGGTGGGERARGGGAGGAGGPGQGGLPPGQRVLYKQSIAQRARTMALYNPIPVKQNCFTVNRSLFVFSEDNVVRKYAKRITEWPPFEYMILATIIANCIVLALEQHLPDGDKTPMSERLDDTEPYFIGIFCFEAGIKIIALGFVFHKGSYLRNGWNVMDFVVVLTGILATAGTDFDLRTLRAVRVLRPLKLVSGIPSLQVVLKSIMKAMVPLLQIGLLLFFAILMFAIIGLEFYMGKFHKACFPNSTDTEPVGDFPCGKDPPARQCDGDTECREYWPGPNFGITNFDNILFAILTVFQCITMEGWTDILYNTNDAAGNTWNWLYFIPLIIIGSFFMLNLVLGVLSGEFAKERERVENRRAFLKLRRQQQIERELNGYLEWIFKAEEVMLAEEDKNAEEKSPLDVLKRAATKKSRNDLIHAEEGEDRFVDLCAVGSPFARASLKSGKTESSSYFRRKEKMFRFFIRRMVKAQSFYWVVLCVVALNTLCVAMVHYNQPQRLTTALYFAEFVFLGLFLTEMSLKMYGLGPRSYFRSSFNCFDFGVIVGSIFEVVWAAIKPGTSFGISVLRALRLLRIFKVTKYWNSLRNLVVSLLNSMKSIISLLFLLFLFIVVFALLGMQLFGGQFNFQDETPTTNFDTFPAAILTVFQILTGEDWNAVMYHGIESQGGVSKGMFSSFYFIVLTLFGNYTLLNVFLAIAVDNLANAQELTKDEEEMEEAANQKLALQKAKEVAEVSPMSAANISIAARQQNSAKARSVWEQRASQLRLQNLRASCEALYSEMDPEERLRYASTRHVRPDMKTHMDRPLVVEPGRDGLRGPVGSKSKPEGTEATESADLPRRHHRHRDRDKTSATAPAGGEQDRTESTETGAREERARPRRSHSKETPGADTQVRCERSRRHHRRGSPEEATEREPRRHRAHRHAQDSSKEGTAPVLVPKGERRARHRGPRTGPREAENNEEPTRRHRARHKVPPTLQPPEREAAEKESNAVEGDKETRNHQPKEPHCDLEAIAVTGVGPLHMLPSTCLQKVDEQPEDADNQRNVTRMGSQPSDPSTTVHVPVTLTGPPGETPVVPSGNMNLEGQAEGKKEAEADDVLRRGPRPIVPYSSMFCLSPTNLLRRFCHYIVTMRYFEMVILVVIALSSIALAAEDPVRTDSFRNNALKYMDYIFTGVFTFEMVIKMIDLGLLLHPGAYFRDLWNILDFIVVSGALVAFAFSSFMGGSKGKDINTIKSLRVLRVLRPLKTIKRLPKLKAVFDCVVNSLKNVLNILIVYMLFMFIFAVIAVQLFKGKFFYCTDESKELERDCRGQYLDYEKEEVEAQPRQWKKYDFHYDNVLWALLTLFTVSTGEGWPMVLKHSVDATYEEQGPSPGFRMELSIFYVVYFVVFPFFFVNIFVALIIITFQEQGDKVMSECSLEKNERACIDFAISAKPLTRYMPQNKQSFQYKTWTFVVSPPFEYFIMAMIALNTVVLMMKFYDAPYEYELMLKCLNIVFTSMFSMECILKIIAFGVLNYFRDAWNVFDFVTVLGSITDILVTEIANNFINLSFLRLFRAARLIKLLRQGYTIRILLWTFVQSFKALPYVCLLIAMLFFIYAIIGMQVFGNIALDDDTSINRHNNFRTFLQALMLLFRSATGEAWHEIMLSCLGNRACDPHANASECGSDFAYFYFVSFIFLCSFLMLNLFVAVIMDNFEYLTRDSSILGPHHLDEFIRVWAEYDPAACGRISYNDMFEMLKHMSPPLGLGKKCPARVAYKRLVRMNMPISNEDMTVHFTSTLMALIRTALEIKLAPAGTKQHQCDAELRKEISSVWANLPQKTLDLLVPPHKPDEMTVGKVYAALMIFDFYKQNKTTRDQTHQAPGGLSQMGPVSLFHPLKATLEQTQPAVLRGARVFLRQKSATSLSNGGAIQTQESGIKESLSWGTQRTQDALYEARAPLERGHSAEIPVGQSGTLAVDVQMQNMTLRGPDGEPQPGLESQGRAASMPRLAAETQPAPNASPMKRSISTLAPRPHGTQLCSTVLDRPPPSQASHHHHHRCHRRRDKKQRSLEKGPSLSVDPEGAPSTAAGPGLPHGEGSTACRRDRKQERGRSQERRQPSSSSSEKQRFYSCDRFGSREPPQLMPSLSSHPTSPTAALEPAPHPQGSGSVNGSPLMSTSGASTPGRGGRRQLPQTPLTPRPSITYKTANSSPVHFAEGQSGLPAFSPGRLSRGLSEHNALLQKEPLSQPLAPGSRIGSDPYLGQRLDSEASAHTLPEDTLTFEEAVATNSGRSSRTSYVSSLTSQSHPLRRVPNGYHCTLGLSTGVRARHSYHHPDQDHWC
Sequence of N-type or omega HVA neuronal calcium channels; calcium currents in N1E-115 neuroblastoma cells (O08532 25-956 partner limits assumed): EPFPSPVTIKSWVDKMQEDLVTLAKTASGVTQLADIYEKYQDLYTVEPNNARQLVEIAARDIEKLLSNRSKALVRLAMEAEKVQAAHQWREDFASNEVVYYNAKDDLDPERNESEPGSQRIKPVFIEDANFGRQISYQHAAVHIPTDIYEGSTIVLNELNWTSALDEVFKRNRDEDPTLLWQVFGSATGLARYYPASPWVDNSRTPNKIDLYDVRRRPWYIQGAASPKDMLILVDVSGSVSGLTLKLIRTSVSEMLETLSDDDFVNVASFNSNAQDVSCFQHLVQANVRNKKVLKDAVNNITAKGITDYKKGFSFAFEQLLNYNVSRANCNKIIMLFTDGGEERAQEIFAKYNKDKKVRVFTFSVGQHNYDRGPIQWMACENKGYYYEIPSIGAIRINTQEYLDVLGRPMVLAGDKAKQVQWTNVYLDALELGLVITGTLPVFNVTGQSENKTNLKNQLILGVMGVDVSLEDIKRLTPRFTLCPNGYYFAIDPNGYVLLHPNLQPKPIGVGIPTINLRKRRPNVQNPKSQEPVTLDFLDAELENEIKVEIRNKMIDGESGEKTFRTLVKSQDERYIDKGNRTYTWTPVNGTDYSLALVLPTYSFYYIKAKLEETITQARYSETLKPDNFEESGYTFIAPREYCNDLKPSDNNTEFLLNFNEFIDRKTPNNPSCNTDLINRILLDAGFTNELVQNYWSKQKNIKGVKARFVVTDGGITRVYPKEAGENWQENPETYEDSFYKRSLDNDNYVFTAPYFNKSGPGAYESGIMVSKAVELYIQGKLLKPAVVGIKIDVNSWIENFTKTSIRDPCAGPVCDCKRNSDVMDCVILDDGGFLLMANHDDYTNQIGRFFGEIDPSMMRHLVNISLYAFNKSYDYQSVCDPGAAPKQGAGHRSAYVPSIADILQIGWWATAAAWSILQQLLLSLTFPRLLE
Sequence of N-type or omega HVA neuronal calcium channels; calcium currents in N1E-115 neuroblastoma cells (O08532 957-1103 partner limits assumed): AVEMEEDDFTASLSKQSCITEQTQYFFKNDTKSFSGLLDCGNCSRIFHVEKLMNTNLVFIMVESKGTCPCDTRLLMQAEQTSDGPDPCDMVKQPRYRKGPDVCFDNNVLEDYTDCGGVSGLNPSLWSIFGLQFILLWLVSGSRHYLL

CC[C@H](C)[C@@H]1NC(=O)[C@H](CO)NC(=O)[C@H]([C@@H](C)O)NC(=O)[C@H](C(C)C)NC(=O)CNC(=O)[C@@H]2CSSC[C@@H]3NC(=O)[C@H](CCCNC(=N)N)NC(=O)CNC(=O)[C@H](CSSC[C@H](N)C(=O)N[C@@H](CCCNC(=N)N)C(=O)N[C@@H](CO)C(=O)N[C@@H](CO)C(=O)NCC(=O)N[C@@H](CO)C(=O)N4C[C@H](O)C[C@H]4C(=O)N2)NC(=O)[C@H](CSSC[C@@H](C(=O)N[C@H](C(N)=O)[C@@H](C)O)NC(=O)[C@H](CCCCN)NC(=O)CNC(=O)[C@H](CCCNC(=N)N)NC(=O)[C@H](Cc2ccc(O)cc2)NC3=O)NC1=O [SNX-157] (H-CRSSGS[Hyp]CGVTSICCGRCYRGKCT-NH2; disulfide 1-15, 8-18, 14-23)
IC50, inhibition of calcium currents in N1E-115 neuroblastoma cells: > 20 μM

— patent US5364842A (priority 1993, dated 1994)
